Test results taken from US11109593B2, “Isoxazolin-5-one derivative and herbicide containing same as active ingredient” (HOKKO CHEMICAL INDUSTRY CO., LTD., priority 2017, dated 2021).

Columns and labels:
Assay type in all cases: in vivo
Scirpus juncoides [1] = experiment: Test Example 2: herbicidal effect test by treatment during growing period in paddy rice cultivation (seven days after seeding); conditions: 120 g/10a active ingredient, assessed 14 days after treatment, dry weight vs untreated area
Summary of the method: (§1)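 Herbicidal rate = (1 − treated/untreated mean dry weight) × 100, scored 14 days after application, two replicates per rate. Treatment: diluted emulsion dropped onto paddy water seven days after sowing, 120 g active ingredient per 10 ares, in a glass greenhouse.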

[2] = system: broad leaf weeds (Lindernia pyxidaria and Monochoria vaginalis); experiment: as above; conditions: 120 g/10a active ingredient, assessed 14 days after treatment, dry weight vs untreated area
Summary of the method: as §1

Echinochloa crus-galli [3] = experiment: as above; conditions: 120 g/10a active ingredient, assessed 14 days after treatment, dry weight vs untreated area
Summary of the method: as §1

Amaranthus viridis [4] = experiment: Test Example 3: herbicidal effect test by treatment of dry field farming soil (one day after seeding); conditions: 120 g/10a active ingredient, evaluated 14 days after treatment
Summary of the method: (§2)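 Seeds (20 each) mixed into top 1 cm of alluvium in pots, surface pressed. One day later, diluted emulsion sprayed onto soil, 100 L/10 a, 120 g a.i./10 a. Dry weight at 14 d vs untreated gave % herbicidal rate; n=2.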

Chenopodium album [5] = experiment: as above; conditions: 120 g/10a active ingredient, evaluated 14 days after treatment
Summary of the method: as §2

southern crabgrass [6] = experiment: as above; conditions: 120 g/10a active ingredient, evaluated 14 days after treatment
Summary of the method: as §2

Echinochloa crus-galli [7] = experiment: as above; conditions: 120 g/10a active ingredient, evaluated 14 days after treatment
Summary of the method: as §2

Amaranthus viridis [8] = experiment: Test Example 4: herbicidal effect test by treatment of leave and stem in dry field farming (seven days after seeding); conditions: 120 g/10a active ingredient; emulsion sprayed seven days after seeding; evaluated 14 days after treatment
Summary of the method: (§3)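 Weeds were seeded at 20 seeds per species into the top 1 cm of alluvial upland soil in pots, then sprayed 7 days after seeding with water-diluted emulsifiable concentrate at 100 L/10 a, giving 120 g active ingredient/10 a. Duplicate pots; herbicidal rate (%) was 14 days post-treatment, from dry weight versus untreated.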

Chenopodium album [9] = experiment: as above; conditions: 120 g/10a active ingredient; emulsion sprayed seven days after seeding; evaluated 14 days after treatment
Summary of the method: as §3

southern crabgrass [10] = experiment: as above; conditions: 120 g/10a active ingredient; emulsion sprayed seven days after seeding; evaluated 14 days after treatment
Summary of the method: as §3

Echinochloa crus-galli [11] = experiment: as above; conditions: 120 g/10a active ingredient; emulsion sprayed seven days after seeding; evaluated 14 days after treatment
Summary of the method: as §3

Scirpus juncoides [12] = experiment: Test Example 1: herbicidal effect test by treatment of rice paddy soil (immediately after seeding); conditions: 120 g/10a active ingredient, dry weight vs untreated area, 14 days after treatment
Summary of the method: (§4)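 Flooded paddy pot test in a glass greenhouse: emulsion diluted in water, dropped at 120 g a.i. per 10 ares just after sowing, water depth kept about 3 cm. Dry-weight reduction relative to untreated plants is scored at 14 days.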

[13] = system: broad leaf weeds (Lindernia pyxidaria and Monochoria vaginalis); experiment: as above; conditions: 120 g/10a active ingredient, dry weight vs untreated area, 14 days after treatment
Summary of the method: as §4

Echinochloa crus-galli [14] = experiment: as above; conditions: 120 g/10a active ingredient, dry weight vs untreated area, 14 days after treatment
Summary of the method: as §4

SMILES | Herbicidal rate (%) Scirpus juncoides (Scirpus juncoides [1]) | Herbicidal rate (%) Lindernia pyxidaria [2] | Herbicidal rate (%) Monochoria vaginalis [2] | Herbicidal rate (%) Echinochloa crus-galli (Echinochloa crus-galli [3]) | herbicidal rate, Amaranthus viridis (Amaranthus viridis [4]) | herbicidal rate, Chenopodium album (Chenopodium album [5]) | herbicidal rate, southern crabgrass (southern crabgrass [6]) | herbicidal rate, Echinochloa crus-galli (Echinochloa crus-galli [7]) | herbicidal effect (herbicidal rate), Amaranthus viridis (Amaranthus viridis [8]) | herbicidal effect (herbicidal rate), Chenopodium album (Chenopodium album [9]) | herbicidal effect (herbicidal rate), southern crabgrass (southern crabgrass [10]) | herbicidal effect (herbicidal rate), Echinochloa crus-galli (Echinochloa crus-galli [11]) | Herbicidal rate (%) Scirpus juncoides (Scirpus juncoides [12]) | Herbicidal rate (%) Lindernia pyxidaria [13] | Herbicidal rate (%) Monochoria vaginalis [13] | Herbicidal rate (%) Echinochloa crus-galli (Echinochloa crus-galli [14])
CCC(C)n1oc(=O)c(Cc2ccccc2N(C(=O)C2CCCO2)S(=O)(=O)C(F)(F)F)c1C (stereo not shown) [Compound 1-522] | 90% | 90% | 90% | 90% | 90% | 90% | 90% | 90% | 40% | 40% | 90% | 90% | 90% | 90% | 90% | 90%
CCC(c1ccccc1)n1oc(=O)c(Cc2ccccc2NS(=O)(=O)C(F)(F)F)c1C (stereo not shown) [Compound 1-211] | 90% | 60% | 80% | 90% | 0% | 0% | 90% | 90% | 40% | 50% | 60% | 90% | 90% | 90% | 90% | 90%
Cc1c(Cc2ccccc2NS(=O)(=O)C(F)(F)F)c(=O)on1Cc1ccc(F)cc1 [Compound 1-183] | 100% | 100% | 100% | 80% | 50% | 60% | 90% | 90% | 40% | 50% | 50% | 90% | 100% | 100% | 100% | 100%
Cc1c(Cc2ccccc2N(S(C)(=O)=O)S(=O)(=O)C(F)(F)F)c(=O)on1Cc1ccc(F)cc1 [Compound 1-906] | 100% | 100% | 100% | 90% | 50% | 70% | 90% | 100% | 100% | 50% | 50% | 90% | 100% | 100% | 100% | 100%
Cc1c(Cc2ccccc2N(S(=O)(=O)C(F)(F)F)S(=O)(=O)C(F)(F)F)c(=O)on1Cc1ccc(F)cc1 [Compound 1-1014] | 90% | 80% | 80% | 90% | 40% | 40% | 70% | 90% | 40% | 50% | 40% | 70% | 90% | 90% | 100% | 90%
CSCCn1oc(=O)c(Cc2ccccc2N(C(=O)C2CC2)S(=O)(=O)C(F)(F)F)c1C [Compound 1-413] | 90% | 90% | 90% | 90% | 90% | 90% | 90% | 90% | 40% | 40% | 90% | 90% | 90% | 90% | 90% | 90%
Cc1c(Cc2ccccc2N(C(=O)C(C)C)S(=O)(=O)C(F)(F)F)c(=O)on1CC(C)(C)C [Compound 1-333] | 90% | 90% | 90% | 90% | 90% | 90% | 90% | 90% | 40% | 40% | 90% | 90% | 90% | 90% | 90% | 90%
CCC(C)n1oc(=O)c(Cc2ccccc2N(C(=O)OCC2CCCO2)S(=O)(=O)C(F)(F)F)c1C (stereo not shown) [Compound 1-829] | 90% | 90% | 90% | 90% | 90% | 90% | 90% | 90% | 40% | 40% | 90% | 90% | 90% | 90% | 90% | 90%
CCC(C)CCn1oc(=O)c(Cc2ccccc2N(S(=O)(=O)C(F)(F)F)S(=O)(=O)C(F)(F)F)c1C (stereo not shown) [Compound 1-978] | 60% | 50% | 60% | 100% | 90% | 90% | 90% | 80% | 40% | 40% | 50% | 60% | 90% | 90% | 80% | 100%
CCCC(C)n1oc(=O)c(Cc2ccccc2NS(=O)(=O)C(F)(F)F)c1C (stereo not shown) [Compound 1-109] | 90% | 70% | 90% | 90% | 60% | 60% | 90% | 90% | 70% | 50% | 80% | 90% | 100% | 100% | 100% | 100%
